The target in the assay is Macrophage colony-stimulating factor 1 receptor (Homo sapiens, UniProt P07333). Description: Fluorescence Polarization Competition Immunoassay. Conditions: pH 7.5; 25 °C. Here is the method:
The assay buffer used was 100 mM 4-(2-hydroxyethyl)piperazine 1-ethanesulfonic acid (HEPES), pH 7.5, 1 mM 1,4-dithio-DL-threitol (DTT), 0.01% (v/v) Tween-20. Compounds were diluted in assay buffer containing 4% dimethylsulfoxide (DMSO) just prior to the assay. To each well, 5 μL of compound were added followed by the addition of 3 μL of a mix containing 33 nM c-fms (Johnson & Johnson PRD) and 16.7 mM MgCl2 (Sigma) in assay buffer. The kinase reaction was initiated by adding 2 μL of 5 mM ATP (Sigma) in assay buffer. The final concentrations in the assay were 10 nM c-fms, 1 mM ATP, 5 mM MgCl2, 2% DMSO. Control reactions were ran in each plate: in positive and negative control wells, assay buffer (made 4% in DMSO) was substituted for the compound; in addition, positive control wells received 1.2 μL of 50 mM ethylenediaminetetraaceticacid (EDTA). The plates were incubated at room temperature for 45 min. At the end of the incubation, the reaction was quenched with 1.2 μL of 50 mM EDTA (EDTA was not added to the positive control wells at this point; see above). Following a 5-min incubation, each well received 10 μL of a 1:1:3 mixture of anti-phosphotyrosine antibody, 10×, PTK green tracer, 10× (vortexed), FP dilution buffer, respectively (all from PanVera, cat. # P2837). The plate was covered, incubated for 30 min at room temperature and the fluorescence polarization was read on the Analyst. […]
A general note: Polarisation of emitted light reports the rotation of a fluorescent probe.

Chain of Macrophage colony-stimulating factor 1 receptor (P07333 whole entry): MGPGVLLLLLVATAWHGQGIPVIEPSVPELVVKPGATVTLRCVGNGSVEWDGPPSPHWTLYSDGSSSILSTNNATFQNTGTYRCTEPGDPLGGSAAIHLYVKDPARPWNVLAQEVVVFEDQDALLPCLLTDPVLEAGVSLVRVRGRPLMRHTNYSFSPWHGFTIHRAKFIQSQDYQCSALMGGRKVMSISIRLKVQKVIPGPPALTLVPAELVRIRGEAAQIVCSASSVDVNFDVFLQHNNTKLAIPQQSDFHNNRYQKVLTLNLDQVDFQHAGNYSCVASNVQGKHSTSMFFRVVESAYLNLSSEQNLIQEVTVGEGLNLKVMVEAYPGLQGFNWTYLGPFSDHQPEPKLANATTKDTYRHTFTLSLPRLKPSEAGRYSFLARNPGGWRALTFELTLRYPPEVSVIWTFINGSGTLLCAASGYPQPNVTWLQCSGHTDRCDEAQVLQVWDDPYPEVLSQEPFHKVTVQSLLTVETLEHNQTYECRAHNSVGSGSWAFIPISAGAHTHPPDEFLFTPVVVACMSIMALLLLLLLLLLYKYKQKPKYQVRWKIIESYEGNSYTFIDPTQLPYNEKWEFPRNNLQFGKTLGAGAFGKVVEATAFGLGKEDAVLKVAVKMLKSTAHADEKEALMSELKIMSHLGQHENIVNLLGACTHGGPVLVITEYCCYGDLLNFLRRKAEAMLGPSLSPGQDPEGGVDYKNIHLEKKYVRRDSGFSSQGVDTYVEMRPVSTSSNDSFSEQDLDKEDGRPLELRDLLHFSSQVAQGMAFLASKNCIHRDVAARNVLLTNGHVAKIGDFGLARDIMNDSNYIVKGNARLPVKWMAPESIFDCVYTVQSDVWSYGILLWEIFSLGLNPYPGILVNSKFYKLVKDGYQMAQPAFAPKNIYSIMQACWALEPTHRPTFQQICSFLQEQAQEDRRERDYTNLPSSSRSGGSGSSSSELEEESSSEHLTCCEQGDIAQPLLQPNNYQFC

The IC50 is the midpoint of a concentration-inhibition curve. Low readings indicate greater potency in that assay, high ones weaker potency in that assay. `CC1(C)CC=C(c2cc([C@]3(O)CC[C@@H](N4CCOCC4)CC3)ccc2NC(=O)c2nc(C#N)c[nH]2)CC1` [US9403804, 44]: the IC50 worked out at 0.72 nM.

`CC1(C)CC=C(c2cc([C@]3(O)CC[C@H](N4CCOCC4)CC3)ccc2NC(=O)c2nc(C#N)c[nH]2)CC1` [US9403804, 45] registered an IC50 of 3.4 nM.

The values are drawn from BindingDB's records for patent US9403804 (Janssen Pharmaceutica, 2016).
